In publication PMC8430704, “Novel Sulfonamide-Based Carbamates as Selective Inhibitors of BChE” (International Journal of Molecular Sciences, 2021):

Tests used:
AChE from electric eel = target: T1, AChE from electric eel (Electrophorus electricus, UniProt O42275); experiment: AChE inhibition, modified Ellman's method; type: biochemical
T1 construct: from tissue
Method: (§1) The ability of all synthesized derivatives to inhibit eeAChE (acetylcholinesterase from electric eel, Electrophorus electricus) and eqBChE (butyrylcholinesterase from equine serum) was determined in vitro using the modified Ellman´s method. […] Ellmanʼs method is widely used for measuring cholinesterase activity and the efficiency of cholinesterase inhibitors. The principle of this simple method is the determination of the SH and -S-S- groups. The activity of the cholinesterase is measured indirectly by quantifying the concentration of 2-nitro-5-sulfanylbenzoic acid ion formed in the reaction between 5,5′-dithiobis-2-nitrobenzoic acid (DTNB) and thiocholine (i.e., the product of the acetylthiocholine hydrolysis catalysed by cholinesterase).
(§2) All studied compounds were dissolved in DMSO (concentration 0.01 M) and diluted in demineralized water (concentration 0.001 M). The ability of the studied compounds to inhibit eeAChE and eqBChE was determined using modified Ellman´s method at 25 °C in the presence of phosphate buffered saline (PBS, 0.1 M, pH 7.4) in a glass cuvette with 1 cm optical path. The enzyme activity in the total reaction mixture (2 mL) was 0.2 U/mL; the concentration of acetylthiocholine (ATCh) or butyrylthiocholine (BTCh) was 40 μM; and the concentration of DTNB was 0.1 mM for all reactions. The inhibitory activity of the studied derivatives was evaluated based on the ratio v0/vi (v0 is the rate of ATCh or BTCh hydrolysis in the absence of the inhibitor, vi is the rate of ATCh or BTCh hydrolysis in the presence of the inhibitor). The IC50 value was obtained from the dependence v0/vi on the concentration of the tested compound (inhibitor).
(§3) The determination of v0 was done as follows. Into the cuvette, PBS (0.1 M, pH 7.4), DTNB, and ATCh (BTCh) were placed. The enzymatic reaction was started by adding the enzyme. […] The measurement was performed at least in triplicate, and average v0 was determined.
(§4) Then, vi (for the given concentration of inhibitor) was determined. Into the cuvette, DTNB, ATCh (BTCh), a chosen volume of the suitably diluted inhibitor (to achieve the required concentration of inhibitor in the total reaction mixture), and a certain volume of PBS (to achieve the total volume of the reaction mixture 2 mL after adding the enzyme) were placed. The enzymatic reaction was started by adding the enzyme. […] Five different concentrations of the inhibitor were used, and each measurement was performed at least in duplicate.

BChE from equine serum [1] = target: T2, BChE from equine serum (Equus caballus, UniProt P81908); experiment: BChE inhibition, modified Ellman's method; type: biochemical; details: for IC50: IC50 (µM) BChE, eqBChE, modified Ellman's method, 25 °C, PBS pH 7.4, mean ± SD, n = 3; for fold higher inhibitory activity against BChE than rivastigmine: ratio of BChE IC50 vs RIV; for SI (selectivity index) = IC50 (AChE)/IC50 (BChE): value over 1 = more potent inhibition of BChE
T2 construct: butyrylcholinesterase from equine serum; from tissue; host or cells: equine serum
Method: Based on IC50 values for both cholinesterases, selectivity indexes (SI) as the ratio of IC50 for AChE/IC50 for BChE to quantify the preference for BChE were calculated.
as §1, §2, §3, §4

[2] = Preliminary stability test (decomposition in buffer, HPLC)
Method: pH (6, 7.4, 8). Measurement of these degradations was performed by HPLC in reverse phase
acetonitrile/water (98:2). The compound was stirred in a tempered buffer (37 °C) of appropriate
pH and a sample was taken for HPLC analysis at a specified time.

BChE from equine serum [3] = target: T2, BChE from equine serum; experiment: Carbamylation of BChE (progressive inhibition kinetics); type: biochemical; details: from kobs vs. inhibitor concentration
Method: The evaluation of BChE carbamylation was performed on the basis of the measured dependences % residual activity vs. time in the presence of appropriate concentration of inhibitor. […] These dependences were evaluated by non-linear regression and the pseudo-first-order rate constants kobs for progressive inhibition at several inhibitor concentrations were obtained.
The decrease in enzyme activity over time due to inhibitor binding was monitored by the Ellman´s method. Pursuant the procedure described in Carletti [86], the determination was performed subsequently: the reaction mixture containing PBS (0.1 M, pH 7.4), BChE and chosen inhibitor in an appropriate concentration was prepared and intensively stirred. In given times DTNB and BTCh were added to the sample withdrawn from stirred reaction mixture, quickly mixed and absorbance was measured. Consequently, the enzyme activity was determined. Based on knowledge of enzyme activity in the absence of the inhibitor (i.e., 100% activity), the percentages of residual activity in presence of the inhibitor were calculated. Then the dependence of percentage of residual activity vs. time was constructed [87]. By nonlinear regression of these dependences the values of kobs were obtained and subsequently rate constants for carbamylation were calculated. All experiments were performed in duplicate at least.

BChE from equine serum [4] = target: T2, BChE from equine serum; experiment: Reactivation (decarbamylation) of inhibited BChE; type: biochemical; details: BChE from equine serum inhibited ≥ 95%, dilution into PBS
Method: The procedure is described in Section 3.4.
Monitoring of enzyme reactivation was performed as follows. […] The excess inhibitor was removed by dilution into PBS. Samples were withdrawn at successive time points and assayed to measure recovery of enzymatic activity (Ellman´s method was used). […] All experiments were performed in duplicate at least.

human BChE [5] = details: cited from earlier work
human BChE [6] = details: cited from earlier work; remark: listed apart in the source

T1 sequence (O42275 24-633): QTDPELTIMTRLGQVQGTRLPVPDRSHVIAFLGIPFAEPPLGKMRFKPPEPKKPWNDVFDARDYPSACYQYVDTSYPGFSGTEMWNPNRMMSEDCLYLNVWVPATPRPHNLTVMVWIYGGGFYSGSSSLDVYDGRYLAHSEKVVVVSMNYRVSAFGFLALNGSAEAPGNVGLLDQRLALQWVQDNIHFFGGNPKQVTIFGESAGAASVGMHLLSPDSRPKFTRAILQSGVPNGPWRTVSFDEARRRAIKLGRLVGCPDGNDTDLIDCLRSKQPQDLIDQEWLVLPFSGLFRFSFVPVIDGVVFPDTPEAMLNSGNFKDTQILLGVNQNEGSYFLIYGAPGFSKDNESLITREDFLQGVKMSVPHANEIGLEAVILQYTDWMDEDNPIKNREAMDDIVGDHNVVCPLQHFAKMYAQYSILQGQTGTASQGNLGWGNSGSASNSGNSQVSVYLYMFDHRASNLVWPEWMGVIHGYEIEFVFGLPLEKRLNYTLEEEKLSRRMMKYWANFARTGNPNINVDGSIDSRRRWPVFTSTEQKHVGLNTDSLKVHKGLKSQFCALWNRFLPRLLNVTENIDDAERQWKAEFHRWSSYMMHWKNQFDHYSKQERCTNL
T2 sequence (P81908 whole entry): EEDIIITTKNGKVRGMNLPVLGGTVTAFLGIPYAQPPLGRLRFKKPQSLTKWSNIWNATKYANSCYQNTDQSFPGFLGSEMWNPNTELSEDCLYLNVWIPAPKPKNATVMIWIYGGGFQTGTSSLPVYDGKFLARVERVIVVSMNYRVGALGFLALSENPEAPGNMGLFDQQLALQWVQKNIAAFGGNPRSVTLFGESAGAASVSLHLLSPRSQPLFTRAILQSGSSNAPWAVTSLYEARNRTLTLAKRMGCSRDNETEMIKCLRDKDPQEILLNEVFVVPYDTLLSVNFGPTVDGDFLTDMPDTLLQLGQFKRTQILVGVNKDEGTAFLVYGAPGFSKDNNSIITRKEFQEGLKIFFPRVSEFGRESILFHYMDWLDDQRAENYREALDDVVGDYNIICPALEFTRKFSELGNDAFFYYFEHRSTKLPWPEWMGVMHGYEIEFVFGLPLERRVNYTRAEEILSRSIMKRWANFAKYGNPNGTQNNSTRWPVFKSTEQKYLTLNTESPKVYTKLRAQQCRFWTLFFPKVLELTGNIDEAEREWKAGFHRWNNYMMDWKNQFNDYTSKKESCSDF

**Q.** What does the source list for `CC(C)C[C@@H](CS(=O)(=O)NCc1ccccc1)NC(=O)OCc1ccccc1` [Compound 5c, Benzyl [(2S)-1-(benzylsulfamoyl)-4-methylpentan-2-yl]carbamate]?
**A.** IC50 (AChE from electric eel): 91.8 ± 4.89 µM; IC50 (BChE from equine serum [1]): 8.52 ± 0.32 µM; fold higher inhibitory activity against BChE than rivastigmine (BChE from equine serum [1]): approximately 5 fold

**Q.** Which results are given for `CC(C)C[C@@H](CS(=O)(=O)Nc1ccccc1)NC(=O)OCc1ccccc1` [Compound 5d, Benzyl [(2S)-4-methyl-1-(phenylsulfamoyl)pentan-2-yl]carbamate]?
**A.** IC50 (AChE from electric eel): 55.6 ± 1.38 µM; IC50 (BChE from equine serum [1]): 16.54 ± 0.1 µM; SI (selectivity index) = IC50 (AChE)/IC50 (BChE) (BChE from equine serum [1]): 3.36

**Q.** Which results are given for `O=C(N[C@@H](Cc1ccccc1)CS(=O)(=O)NCc1ccccc1)OCc1ccccc1` [Compound 5b, Benzyl [(2S)-1-(benzylsulfamoyl)-3-phenylpropan-2-yl]carbamate]?
**A.** IC50 (AChE from electric eel): 76.9 ± 1.52 µM; IC50 (BChE from equine serum [1]): 86.1 ± 1.91 µM; SI (selectivity index) = IC50 (AChE)/IC50 (BChE) (BChE from equine serum [1]): 0.89

**Q.** For `COc1ccccc1CNS(=O)(=O)C[C@H](CC(C)C)NC(=O)OCc1ccccc1` [Compound 5k, Benzyl {(2S)-1-[(2-methoxybenzyl)sulfamoyl]-4-methylpentan-2-yl}carbamate], which IC50 (AChE from electric eel) is on record?
**A.** 150 ± 3.82 µM

**Q.** And the starting material remaining ([2]; buffer pH 6, 37 °C, after 6 hrs)?
**A.** 13%

**Q.** And the “substance decomposed in the first hour” value ([2]; buffer pH 6, 37 °C, first hour)?
**A.** 75%

**Q.** What about the starting material remaining ([2]; buffer pH 7.4, 37 °C, 48 hours) of the same compound?
**A.** 36%

**Q.** And the starting material remaining ([2]; buffer pH 8, 37 °C, 4 hours)?
**A.** 5%

**Q.** For `O=C(N[C@@H](Cc1ccccc1)CS(=O)(=O)Nc1ccc(Cl)c(Cl)c1)OCc1ccccc1` [Compound 5g, Benzyl {(2S)-1-[(3,4-dichlorophenyl)sulfamoyl]-3-phenylpropan-2-yl}carbamate], which IC50 (AChE from electric eel) is on record?
**A.** 78.83 ± 0.63 µM

**Q.** What about the IC50 (BChE from equine serum [1]) of the same compound?
**A.** 12.6 ± 0.31 µM

**Q.** What about the “SI (selectivity index) = IC50 (AChE)/IC50 (BChE)” value (from here on “SI (selectivity index) = IC50”) (BChE from equine serum [1]) of the same compound?
**A.** 6.25

**Q.** Which IC50 (AChE from electric eel) does the source give for `O=C(N[C@@H](Cc1ccccc1)CS(=O)(=O)N[C@@H]1CCCO1)OCc1ccccc1` [Compound 5i, Benzyl {(2S)-1-phenyl-3-[(2S)-tetrahydrofuran-2-ylsulfamoyl]propan-2-yl}carbamate] here?
**A.** 61.7 ± 1.47 µM

**Q.** And the IC50 (BChE from equine serum [1])?
**A.** 112 ± 3.41 µM

**Q.** And the “SI (selectivity index) = IC50” value (BChE from equine serum [1])?
**A.** 0.55

**Q.** For `CCCNS(=O)(=O)C[C@H](CC(C)C)NC(=O)OCc1ccccc1` [Compound 5e, Benzyl [(2S)-4-methyl-1-(propylsulfamoyl)pentan-2-yl]carbamate], which IC50 (AChE from electric eel) is on record?
**A.** 108 ± 2.39 µM

**Q.** And the IC50 (BChE from equine serum [1])?
**A.** 58.9 ± 1.88 µM

**Q.** What about the “SI (selectivity index) = IC50” value (BChE from equine serum [1]) of the same compound?
**A.** 1.84

**Q.** Which results are given for `CC(C)C[C@@H](CS(=O)(=O)NCCc1ccccc1)NC(=O)OCc1ccccc1` [Compound 5f, Benzyl {(2S)-4-methyl-1-[(2-phenylethyl)sulfamoyl]pentan-2-yl}carbamate]?
**A.** IC50 (AChE from electric eel): 115 ± 6.22 µM; IC50 (BChE from equine serum [1]): 15.3 ± 0.38 µM; SI (selectivity index) = IC50 (AChE)/IC50 (BChE) (BChE from equine serum [1]): 7.50

**Q.** Which IC50 (AChE from electric eel) does the source give for `CC(C)C[C@@H](CS(=O)(=O)NCc1ccc(Cl)cc1)NC(=O)OCc1ccccc1` [Compound 5j, Benzyl {(2S)-1-[(4-chlorobenzyl)sulfamoyl]-4-methylpentan-2-yl}carbamate] here?
**A.** 67.47 ± 0.37 µM

**Q.** And the IC50 (BChE from equine serum [1])?
**A.** 6.57 ± 0.12 µM

**Q.** What about the “fold higher inhibitory activity against BChE than rivastigmine” value (BChE from equine serum [1]) of the same compound?
**A.** approximately 5 fold

**Q.** And the “apparent bimolecular rate constant (ki) of carbamylation” value (BChE from equine serum [3])?
**A.** 1.084 ± 0.0535 M⁻¹ s⁻¹

**Q.** And the “reactivation of BChE after 24 h” value (BChE from equine serum [4])?
**A.** 37%

**Q.** What does the source list for `C[C@@H](CS(=O)(=O)NCc1ccccc1)NC(=O)OCc1ccccc1` [Compound 5a, Benzyl [(2S)-1-(benzylsulfamoyl)propan-2-yl]carbamate]?
**A.** IC50 (AChE from electric eel): 90.6 ± 5.7 µM; IC50 (BChE from equine serum [1]): 100 ± 4.26 µM; SI (selectivity index) = IC50 (AChE)/IC50 (BChE) (BChE from equine serum [1]): 0.90

**Q.** Which “reactivation of human BChE upon dilution” value (human BChE [5]; upon dilution) does the source give for `CCN(C)C(=O)Cl` [EMCC, N,N-ethylmethylcarbaryl chloride] here?
**A.** complete and rapid reactivation

**Q.** Which IC50 (AChE from electric eel) does the source give for `CC(C)C[C@@H](CS(=O)(=O)Nc1ccc(Cl)c(Cl)c1)NC(=O)OCc1ccccc1` [Compound 5n, Benzyl {(2S)-1-[(3,4-dichlorophenyl)sulfamoyl]-4-methylpentan-2-yl}carbamate] here?
**A.** 95.1 ± 2.77 µM

**Q.** What about the IC50 (BChE from equine serum [1]) of the same compound?
**A.** 13.5 ± 0.51 µM

**Q.** And the “SI (selectivity index) = IC50” value (BChE from equine serum [1])?
**A.** 7.04

**Q.** With `CCN(C)C(=O)Oc1cccc([C@H](C)N(C)C)c1` [RIV, rivastigmine] as the compound, how does the “bimolecular rate constant for the carbamylation” value (human BChE [6]) read?
**A.** 1500 M⁻¹ s⁻¹

**Q.** And the “reactivation of human BChE after 24 h” value (human BChE [5]; 24 h)?
**A.** < 10%

**Q.** What does the source list for `CC(C)C[C@@H](CS(=O)(=O)NCc1ccco1)NC(=O)OCc1ccccc1` [Compound 5m, Benzyl {(2S)-1-[(furan-2-ylmethyl)sulfamoyl]-4-methylpentan-2-yl}carbamate]?
**A.** IC50 (AChE from electric eel): 131.8 ± 0.42 µM; IC50 (BChE from equine serum [1]): 19.99 ± 0.17 µM

**Q.** For `CC(C)C[C@@H](CS(=O)(=O)NCc1ccc(F)c(F)c1)NC(=O)OCc1ccccc1` [Compound 5l, Benzyl {(2S)-1-[(3,4-difluorobenzyl)sulfamoyl]-4-methylpentan-2-yl}carbamate], which IC50 (AChE from electric eel) is on record?
**A.** 92.9 ± 2.47 µM

**Q.** And the IC50 (BChE from equine serum [1])?
**A.** 55.6 ± 1.38 µM

**Q.** And the “SI (selectivity index) = IC50” value (BChE from equine serum [1])?
**A.** 1.67

**Q.** For `O=C(N[C@@H](Cc1ccccc1)CS(=O)(=O)Nc1ccc2c(c1)OCO2)OCc1ccccc1` [Compound 5h, Benzyl [(2S)-1-(1,3-benzodioxol-5-ylsulfamoyl)-3-phenylpropan-2-yl]carbamate], which IC50 (AChE from electric eel) is on record?
**A.** 61.39 ± 0.47 µM

**Q.** What about the IC50 (BChE from equine serum [1]) of the same compound?
**A.** 11.5 ± 0.28 µM

**Q.** What about the “SI (selectivity index) = IC50” value (BChE from equine serum [1]) of the same compound?
**A.** 5.32
